From ChEMBL document CHEMBL1201862, “PubChem BioAssay data set” (2004)
Where “and” joins values, the source holds several entries; their conditions need not be identical. Equal values may be shown once.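 How tested: cells in 96-well plates exposed to compound for 48 hours at five concentrations. At the GI50, growth is halved.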 Calls of active or inactive are those of the source. Rule as the data show it: active = GI50 up to about 1.1 µM and inactive = higher.

Experiments:
Assay in all cases: inhibition of tumour cell growth, NCI panel, 48 h
[1] = system: SF-295
[2] = system: HCC 2998
[3] = system: MCF7
[4] = system: UO-31
[5] = system: CAKI-1
[6] = system: SF-539
[7] = system: SK-MEL-5
[8] = system: SF-268
[9] = system: NCI-H226
[10] = system: SK-OV-3
[11] = system: KM12
[12] = system: IGROV-1
[13] = system: NCI/ADR-RES
[14] = system: U-251
[15] = system: SN12C
[16] = system: OVCAR-4
[17] = system: Hs-578T
[18] = system: HT-29
[19] = system: OVCAR-3
[20] = system: Malme-3M
[21] = system: SNB-19
[22] = system: OVCAR-8
[23] = system: SNB-75
[24] = system: OVCAR-5
[25] = system: RPMI-8226
[26] = system: CCRF-CEM
[27] = system: K562
[28] = system: HOP-92
[29] = system: NCI-H23
[30] = system: T47D
[31] = system: NCI-H522
[32] = system: SR
[33] = system: EKVX
[34] = system: BT-549
[35] = system: MDA-MB-435
[36] = system: A549
[37] = system: UACC-257
[38] = system: PC-3
[39] = system: COLO 205
[40] = system: M14
[41] = system: LOX IMVI
[42] = system: HCT-15
[43] = system: DU-145
[44] = system: ACHN
[45] = system: UACC-62
[46] = system: HL-60
[47] = system: MDA-N
[48] = system: SW-620
[49] = system: RXF 393
[50] = system: 786-0
[51] = system: SK-MEL-2
[52] = system: SK-MEL-28
[53] = system: HOP-62
[54] = system: TK-10
[55] = system: HCT-116
[56] = system: MOLT-4
[57] = system: NCI-H460
[58] = system: A498

SMILES: CC(C)OP(=O)(OC(C)C)C(C(F)(F)F)C(F)(F)F
- GI50 [1]: > 100 µM (inactive)
- GI50 [2]: > 100 µM (inactive)
- GI50 [3]: > 100 µM (inactive)
- GI50 [4]: > 100 µM (inactive)
- GI50 [5]: > 100 µM (inactive)
- GI50 [6]: > 100 µM (inactive)
- GI50 [7]: > 100 µM (inactive)
- GI50 [8]: > 100 µM (inactive)
- GI50 [9]: > 100 µM (inactive)
- GI50 [10]: > 100 µM (inactive)
- GI50 [11]: > 100 µM (inactive)
- GI50 [12]: > 100 µM (inactive)
- GI50 [13]: > 100 µM (inactive)
- GI50 [14]: > 100 µM (inactive)
- GI50 [15]: > 100 µM (inactive)
- GI50 [16]: > 100 µM (inactive)
- GI50 [17]: > 100 µM (inactive)
- GI50 [18]: > 100 µM (inactive)
- GI50 [19]: > 100 µM (inactive)
- GI50 [20]: > 100 µM (inactive)
- GI50 [21]: > 100 µM (inactive)
- GI50 [22]: > 100 µM (inactive)
- GI50 [23]: > 100 µM (inactive)
- GI50 [24]: > 100 µM (inactive)
- GI50 [25]: > 100 µM (inactive)
- GI50 [26]: > 100 µM (inactive)
- GI50 [27]: > 100 µM (inactive)
- GI50 [28]: > 100 µM (inactive)
- GI50 [29]: > 100 µM (inactive)
- GI50 [30]: > 100 µM (inactive)
- GI50 [31]: > 100 µM (inactive)
- GI50 [32]: > 100 µM (inactive)
- GI50 [33]: > 100 µM (inactive)
- GI50 [34]: > 100 µM (inactive)
- GI50 [35]: > 100 µM (inactive)
- GI50 [36]: > 100 µM (inactive)
- GI50 [37]: > 100 µM (inactive)
- GI50 [38]: > 100 µM (inactive)
- GI50 [39]: > 100 µM (inactive)
- GI50 [40]: > 100 µM (inactive)
- GI50 [41]: > 100 µM (inactive)
- GI50 [42]: > 100 µM
- GI50 [43]: > 100 µM (inactive)
- GI50 [44]: > 100 µM (inactive)
- GI50 [45]: > 100 µM (inactive)
- GI50 [46]: > 100 µM (inactive)
- GI50 [47]: > 100 µM (inactive)
- GI50 [48]: > 100 µM (inactive)
- GI50 [49]: > 100 µM (inactive)
- GI50 [50]: > 100 µM (inactive)
- GI50 [51]: > 100 µM (inactive)
- GI50 [52]: > 100 µM (inactive)
- GI50 [53]: > 100 µM (inactive)
- GI50 [54]: > 100 µM (inactive)
- GI50 [55]: > 100 µM (inactive)
- GI50 [56]: > 100 µM (inactive)

SMILES: CC(=O)OC1OC(C2c3cccc(O)c3C(=O)c3c(O)cc(CO)cc32)C(O)C(O)C1O (stereo not given)
- GI50 [1]: 2.72 µM (inactive) and 3.62 µM (inactive)
- GI50 [2]: 1.85 µM (inactive) and 3.03 µM (inactive)
- GI50 [3]: 5.04 µM (inactive) and 4.75 µM (inactive)
- GI50 [4]: 6.46 µM (inactive) and 7.96 µM (inactive)
- GI50 [5]: 2.78 µM (inactive) and 2.23 µM (inactive)
- GI50 [6]: 2 µM (inactive) and 1.95 µM (inactive)
- GI50 [7]: 1.53 µM (inactive) and 1.68 µM (inactive)
- GI50 [8]: 4.97 µM (inactive) and 5.77 µM (inactive)
- GI50 [10]: 4.14 µM (inactive) and 2.62 µM (inactive)
- GI50 [12]: 4.14 µM (inactive) and 3.87 µM (inactive)
- GI50 [13]: 3.88 µM (inactive) and 2.93 µM (inactive)
- GI50 [14]: 3.66 µM (inactive)
- GI50 [15]: 7.11 µM (inactive) and 5.35 µM (inactive)
- GI50 [16]: 5.38 µM (inactive) and 6.61 µM (inactive)
- GI50 [17]: 2.31 µM (inactive) and 2.22 µM (inactive)
- GI50 [18]: 3.74 µM (inactive) and 3.92 µM (inactive)
- GI50 [20]: 4.39 µM (inactive) and 3.45 µM (inactive)
- GI50 [21]: 2.88 µM (inactive) and 3.33 µM (inactive)
- GI50 [22]: 4.31 µM (inactive) and 3.61 µM (inactive)
- GI50 [23]: 3.27 µM (inactive) and 5.27 µM (inactive)
- GI50 [24]: 3.94 µM (inactive) and 2.4 µM (inactive)
- GI50 [26]: 3.04 µM (inactive) and 3.18 µM (inactive)
- GI50 [27]: 3.16 µM (inactive) and 3 µM (inactive)
- GI50 [28]: 3.1 µM (inactive)
- GI50 [29]: 3.08 µM (inactive) and 3.33 µM (inactive)
- GI50 [30]: 1.41 µM (inactive) and 1.73 µM (inactive)
- GI50 [57]: 3.43 µM (inactive) and 3.48 µM (inactive)
- GI50 [31]: 4.51 µM (inactive) and 2.91 µM (inactive)
- GI50 [32]: 2.67 µM (inactive) and 1.93 µM (inactive)
- GI50 [33]: 3.78 µM (inactive) and 2.64 µM (inactive)
- GI50 [34]: 4.66 µM (inactive) and 5.7 µM (inactive)
- GI50 [35]: 3.72 µM (inactive) and 3.19 µM (inactive)
- GI50 [36]: 2.8 µM (inactive) and 5.56 µM (inactive)
- GI50 [37]: 6.47 µM (inactive) and 7.45 µM (inactive)
- GI50 [38]: 3.01 µM (inactive) and 2.32 µM (inactive)
- GI50 [40]: 10.5 µM (inactive) and 9.42 µM (inactive)
- GI50 [41]: 2.87 µM (inactive) and 3.03 µM (inactive)
- GI50 [58]: 6.34 µM (inactive)
- GI50 [42]: 3.37 µM and 3.51 µM
- GI50 [43]: 4.55 µM (inactive) and 4.88 µM (inactive)
- GI50 [45]: 4.22 µM (inactive) and 4.29 µM (inactive)
- GI50 [46]: 2.32 µM (inactive) and 2 µM (inactive)
- GI50 [47]: 3.74 µM (inactive) and 3.13 µM (inactive)
- GI50 [48]: 3.66 µM (inactive) and 3.03 µM (inactive)
- GI50 [49]: 9.4 µM (inactive) and 6.84 µM (inactive)
- GI50 [50]: 4.18 µM (inactive) and 4.13 µM (inactive)
- GI50 [51]: 2.32 µM (inactive) and 2.74 µM (inactive)
- GI50 [52]: 2.92 µM (inactive)
- GI50 [54]: 5.69 µM (inactive) and 5.81 µM (inactive)
- GI50 [55]: 3.01 µM (inactive) and 2.92 µM (inactive)
- GI50 [56]: 4.13 µM (inactive) and 4.58 µM (inactive)

SMILES: CC1(C)O[C@H]2OC(CO[Si](C)(C)C(C)(C)C)C(N=[N+]=[N-])[C@H]2O1 (stereo not given in full)
- GI50 [1]: 11.8 µM (inactive)
- GI50 [2]: 17.8 µM (inactive)
- GI50 [3]: 20.7 µM (inactive)
- GI50 [4]: 17.2 µM (inactive)
- GI50 [5]: 23.8 µM (inactive)
- GI50 [6]: 20 µM (inactive)
- GI50 [8]: 20.7 µM (inactive)
- GI50 [9]: 20 µM (inactive)
- GI50 [10]: 14 µM (inactive)
- GI50 [11]: 18.7 µM (inactive)
- GI50 [12]: 3.04 µM (inactive)
- GI50 [13]: 18.1 µM (inactive)
- GI50 [14]: 20.6 µM (inactive)
- GI50 [15]: 20 µM (inactive)
- GI50 [16]: 26.3 µM (inactive)
- GI50 [17]: 23.6 µM (inactive)
- GI50 [18]: 12.5 µM (inactive)
- GI50 [19]: 22.7 µM (inactive)
- GI50 [20]: 17.1 µM (inactive)
- GI50 [21]: 17.7 µM (inactive)
- GI50 [22]: 20.1 µM (inactive)
- GI50 [23]: 28.4 µM (inactive)
- GI50 [24]: 20.5 µM (inactive)
- GI50 [25]: 13 µM (inactive)
- GI50 [26]: 16.6 µM (inactive)
- GI50 [27]: 13.3 µM (inactive)
- GI50 [28]: 23.9 µM (inactive)
- GI50 [29]: 19.2 µM (inactive)
- GI50 [57]: 26.2 µM (inactive)
- GI50 [32]: 12.4 µM (inactive)
- GI50 [33]: 22.8 µM (inactive)
- GI50 [34]: 21.6 µM (inactive)
- GI50 [35]: 25.8 µM (inactive)
- GI50 [36]: 18.2 µM (inactive)
- GI50 [37]: 18 µM (inactive)
- GI50 [38]: 20.3 µM (inactive)
- GI50 [40]: 19.2 µM (inactive)
- GI50 [41]: 21 µM (inactive)
- GI50 [58]: 25 µM (inactive)
- GI50 [42]: 21.1 µM
- GI50 [44]: 18.7 µM (inactive)
- GI50 [45]: 19.1 µM (inactive)
- GI50 [46]: 7.31 µM (inactive)
- GI50 [47]: 23.7 µM (inactive)
- GI50 [48]: 21.5 µM (inactive)
- GI50 [49]: 16.6 µM (inactive)
- GI50 [50]: 18.2 µM (inactive)
- GI50 [51]: 17.2 µM (inactive)
- GI50 [52]: 24.7 µM (inactive)
- GI50 [53]: 19.2 µM (inactive)
- GI50 [54]: 19.1 µM (inactive)
- GI50 [55]: 15.6 µM (inactive)
- GI50 [56]: 17 µM (inactive)
